From patent US7737128B2, “Pyrimidines, such as uridine, in treatments for patients with bipolar disorder” (The McLean Hospital Corporation, priority 2004, dated 2010)
Read-outs that look alike come from different tables or passages of the source.

Assays:
[1] = in vivo; cited from earlier work
[2] = uridine infusion, cited from earlier work
[3] = cited from earlier work
[4] = oral, cited from earlier work
fluorouracil toxicity = settings: cited from earlier work
[5] = test system: patients with bipolar disorder; assay: Phase I 6-week open-label clinical trial in outpatients with bipolar disorder (rating scales, patient histories)
Description: The new methods are based on a Phase I open-label clinical trial of RG2133, a prodrug of uridine, designed to assess the impact of uridine in patients with bipolar disorder. […] The trial assessed the impact of daily, oral administration of escalating doses of RG2133 over a 6 week period on the symptoms associated with bipolar disorder, which are not adequately treated with existing drugs including SSRIs such as Prozac® or Zoloft®. The trial included 11 patients.
Outpatients with bipolar disorder were recruited for this 6-week open-label study. Patients' daily dose amounts were divided into three daily doses. Subjects received an initial RG2133 dose of 6 g/day. […] Subjects were monitored for changes in mood using standard rating scales. The subjects' physical status was followed clinically and with standard laboratory measures to monitor for any adverse effects and/or toxicity.
During the baseline visit, a detailed psychiatric and medical history was obtained, and the following standard rating scales were performed: Structured Clinical Interview for DSM-IV (SCID) for diagnosis, Young Mania Rating Scale (YMRS), Montgomery-Asberg Depression rating Scale (MADRS), the Hamilton Anxiety Scale (HAMA), Clinical Global Impression scale (CGI), the Global Assessment of Function (GAF) scale, quality of life scale (SF-36), as well as a brief adverse-effect rating scale.
After the baseline evaluation, patients returned for office visits at weeks 1, 2, 3, 4, and 6. The same rating scales were performed at each follow-up office visit, except for the SCID. Instead of the full SCID at the follow-up visits, only the SCID screening questions for mania and depression were performed to aid in the determination of syndromic recovery or recurrence. In addition, patients maintained a daily Mood Diary, which was reviewed at each study visit to elicit symptom recall. Routine clinical and laboratory evaluations of each patient's physical status occurred at baseline and at regular intervals. Subjects were monitored for changes in mood using standard rating scales. The subjects' physical status was followed clinically and with standard laboratory measures to monitor for any adverse effects and/or toxicity.
During the study patients were evaluated using the Montgomery-Asberg Depression Rating Scale (MADRS). This scale measures the effect of treatment on depression severity relative to a baseline assessment before treatment. The MADRS measures the severity of a number of symptoms on a scale from 0 to 60, including mood and sadness, tension, sleep, appetite, energy, concentration, suicidal ideation, and restlessness. Increasing scores reflect a greater severity of depression. Scores of 15-25 on the MADRS scale indicate moderate depression. Scores above 25 indicate clinically severe depression.
During the study patients were also evaluated using the Young Mania Rating Scale (YMRS). This scale assesses the severity of mania in patients already diagnosed with mania based on a personal interview. Scores of 1 to 12 are not considered to be suffering from mania, whereas a score of 13 indicates minimal mania. Increasing scores to 44, indicate progressively severe mania.
During the study patients were also evaluated using Clinical Global Impression (CGI) scale. A clinician rated the severity of the patient's illness relative to the clinician's past experience with patients with the same diagnosis. At the outset of the study a clinician created a baseline single item score on a 7 point scale from 1 (‘normal’, not ill) to 7 (extremely ill). CGI was then used to track the clinical distance between a patient's individual's current condition and his or her baseline condition at the start of treatment.
During the study patients were evaluated using Global Assessment of Functioning (GAF), which is a modified version of the Global Assessment Scale (GAS).

blood lactate levels = assay: Plasma lactate elevation after oral gavage (stress response) during repeat dose toxicology study; assay type: in vivo, rats; settings: rat plasma lactate
[6] = test system: patients with bipolar disorder; assay: Adverse events in the 6-week patient study; assay type: in vivo, human
Description: The total number of adverse events is reported by the number and percentage of subjects experiencing each adverse event. If a subject reported the same adverse event over the course of the study, that event was counted once.
During the course of the 6-week study, there were some reported side effects to the medication. 1 subject reported stomach cramps, 1 reported nausea, 4 reported decreased appetite, 3 reported an increase in constipation, 4 reported diarrhea, 1 reported muscle cramps, 2 reported headaches, 1 reported fatigue, 2 reported problems with sleeping, 2 reported increased flatulence, and 1 reported a decrease in libido. In addition, one subject reported changes in their vision that affected their depth perception. […] The subject independently decided to increase their dose back to its original amount in response to their manic reaction to the decreased dose. Due to this protocol deviation, and the subject's manic break, the subject was terminated from the study.

[7] = metabolites, not the prodrug, are observed in blood; cited from earlier work
in vivo = settings: both sexes, Crl: CD (SD)IGS BR, rat, po
Description: RG2133 has been tested in a repeat dose rodent toxicity and toxicokinetic study. Three groups of ten male and ten female rats (Crl: CD® (SD)IGS BR strain) received RG2133 orally, by gavage, at dosages of 300, 1000, or 2000 mg/kg/day (administered as 150, 500, or 1000 mg/kg b.i.d.) in aqueous 1% carboxymethylcellulose with methyl paraben (at 1.8 g/l) and propyl paraben (at 0.2 g/l) for four weeks. Animals were examined by observation and lab analysis of blood and urine for evidence of toxicity, and results are shown in Table 1. Tissues were examined microscopically for evidence of drug related toxicity. […] The no-observed-adverse-effect-level (NOAEL) was considered to be 2000 mg/kg/day (1000 mg/kg b.i.d.).

[8] = bipolar patients, daily oral escalating doses, 6 weeks

O=c1ccn([C@@H]2O[C@H](CO)[C@@H](O)[C@H]2O)c(=O)[nH]1 [uridine]
volume distribution [1]: around 0.634 liters/kg | Plasma concentrations above baseline values ([2]; baseline 3 μM): > 100 fold | Observed side effect [2]: fever | Effect of higher dosages ([3]; above 1000 mg/kg/day, some patients): mild diarrhea | Dosages with no known toxic effects ([3]; pure uridine, long-term experience): up to 1000 mg/kg/day | Reported effects ([4]; 10 or 12 g/m^2): cramps and diarrhea | maximum tolerated dose without side effects ([4]; multiple dosing every 6 hours): 5 g/m^2 | Reported effects ([4]; repeat doses every 6 hours of 8 g/m^2): diarrhea | maximum tolerated dose without side effects ([4]; single dose): 10 g/m^2 | Bioavailability [4]: 5.8-9.9% | Doses at which no toxicity was observed [4]: ≤ 8 g/m^2 | peak plasma levels of uridine [4]: 80 µM

CC(=O)OC[C@H]1O[C@@H](n2ccc(=O)[nH]c2=O)[C@H](OC(C)=O)[C@@H]1OC(C)=O [RG2133, 2′,3′,5′-tri-O-acetyluridine]
Effect on hematologic toxicities associated with fluorouracil (fluorouracil toxicity; 6 g/dose every 6 hours): reduction in hematologic toxicities | Adverse effect seen (fluorouracil toxicity; cancer patients, toxicity evaluation equivocal because of cancer and fluorouracil toxicities): Diarrhea | peak blood uridine levels (fluorouracil toxicity; suspension and tablet forms, 6 g/dose every 6 hours for 9 doses): 167 µM | Individual patient: mania-type event ([5]; Patient #3, bipolar II, on antidepressant, 12 g/day): slight hypomania at week three | Individual patient: reported mood ([5]; Patient #4, bipolar I, on antidepressant, 6 to 12 g/day): feeling stable | Individual patient: mood at end of study ([5]; Patient #4, week six): mood deteriorated at week six | Individual patient: mania-type event ([5]; Patient #4, week three): some hypomania at week three | Individual patient: reported mood ([5]; Patient #5, bipolar I, no antidepressant, 6 g/day): significant change in mood at week one | Individual patient: adverse effect ([5]; Patient #6): some eye pain | Individual patient: reported mood ([5]; Patient #6, no antidepressant, 6 g/day): feeling significantly better than they had in two years | Individual patient: reported mood ([5]; Patient #7, bipolar I, on antidepressant, 6 to 18 g/day): no change in mood | Individual patient: adverse event ([5]; Patient #11): severe bout of colitis | Individual patient: bipolar symptoms ([5]; Patient #11, bipolar II, on antidepressant, 12 g/day): complete remission at week four | Individual patient: adverse effect ([5]; Patient #13): slight change in depth perception leading to two falls | Individual patient: reported mood ([5]; Patient #13, bipolar I, no antidepressant, 6 to 9 g/day): feeling less depressed and more hopeful | Individual patient: complaints ([5]; Patient #15, after three weeks): dizziness spells, constipation, and a reported manic episode | Individual patient: reported mood ([5]; Patient #15, bipolar II, no antidepressant, 6 to 12 g/day): feeling less volatile and fewer mood swings | Individual patient: complaints ([5]; Patient #16): loose stools and increased flatulence | Individual patient: reported mood ([5]; Patient #16, bipolar II, on antidepressant, 6 to 12 g/day): no change in mood | Individual patient: complaints ([5]; Patient #17): loose stools and increased flatulence | Individual patient: reported mood ([5]; Patient #17, bipolar II, on antidepressant, 6 to 12 g/day): no change in mood | Average GAF score ([5]; after week four (FIG. 4)): declined to a level slightly above the initial GAF score | Average GAF score ([5]; beginning of the study to week four (FIG. 4)): improved slightly | Average MADRS scores ([5]; between week three and week six (FIG. 1)): rose slightly | Induction of mania [5, 8]: did not induce mania | Safety of administration [5, 8]: safe | Average female CGI scores ([5]; course of the study relative to initial score, unlike male scores (FIG. 7)): improved | Averaged YMRS scores ([5]; during the course of the study (FIG. 2)): slight decrease | Average HAM-A score ([5]; during the course of the study (FIG. 5)): went down slightly | Female YMRS scores vs initial baseline ([5]; during the study (FIG. 6)): did not increase above the initial baseline score | Average CGI score ([5]; end of the study vs baseline (FIG. 3)): somewhat above baseline | Average MADRS scores ([5]; first three weeks of treatment (FIG. 1)): slight decrease | Average YMRS, female patients ([5]; first three weeks, female vs male (FIG. 6)): declined slightly more than males | Average CGI scores, patients not taking antidepressant ([5]; vs patients on antidepressant medication (FIG. 8)): faster decline | CGI ([5]; weeks one to three (FIG. 3)): improved slightly | CGI ([5]; weeks three to six (FIG. 3)): deteriorated slightly | Effect on patients' depression (MADRS) ([5]; whole study): did not significantly worsen patients' depression | Effect on lactate level relative to normal baseline value (2.4 mM) (blood lactate levels): did not reduce the lactate level below the normal baseline value | Subjects reporting a decrease in libido ([6]; 6-week study): 1 | Subjects reporting an increase in constipation ([6]; 6-week study): 3 | Subjects reporting changes in vision that affected depth perception ([6]; 6-week study): one | Subjects reporting decreased appetite ([6]; 6-week study): 4 | Subjects reporting diarrhea ([6]; 6-week study): 4 | Subjects reporting fatigue ([6]; 6-week study): 1 | Subjects reporting headaches ([6]; 6-week study): 2 | Subjects reporting increased flatulence ([6]; 6-week study): 2 | Subjects reporting muscle cramps ([6]; 6-week study): 1 | Subjects reporting nausea ([6]; 6-week study): 1 | Subjects reporting problems with sleeping ([6]; 6-week study): 2 | Subjects reporting stomach cramps ([6]; 6-week study): 1 | Subjects reporting weaker vision ([6]; 6-week study): Another subject | Subjects reporting a manic episode ([6]; week 3, after reducing the dose): One | Metabolism of enteral dosages [7]: rapidly metabolized to uridine and uracil | NOAEL at 28 days (in vivo): 2000 mg/kg/day
